The results in this text go back to ChEMBL document CHEMBL4364251, “Design, synthesis and biological evaluation of new quinoline derivatives as potential antitumor agents” (Eur J Med Chem, 2019).

Holding throughout (format): functional, cell-based
Assay [1] has as its system HCT-116. In words: Antiproliferative activity against human HCT116 cells incubated for 48 hrs by MTT assay. To be noted: HCT-116, 48 h.
Assay [2] deals with RKO. In words: Antiproliferative activity against human RKO cells incubated for 48 hrs by MTT assay. On the technique in general: Tetrazolium dyes change colour on reduction, which living cells bring about.
For assay [3], the system named is A2780. Nature of the assay: Antiproliferative activity against human A2780 cells incubated for 48 hrs by MTT assay. Conditions: A2780, 48 h.
The test system of assay [4] is HeLa. In words: Antiproliferative activity against human HeLa cells incubated for 48 hrs by MTT assay.
Assay [5] concerns BGC-823. Nature of the assay: Antiproliferative activity against human BGC823 cells incubated for 48 hrs by MTT assay. To be noted: BGC-823, 48 h.
The test system of assay [6] is A549. In words: Antiproliferative activity against human A549 cells incubated for 48 hrs by MTT assay. Conditions: A549, 48 h.
Assay [7] deals with NCI-H1650. Nature of the assay: Antiproliferative activity against human NCI-H1650 cells incubated for 48 hrs by MTT assay. To be noted: NCI-H1650, 48 h.

pIC50: −log10 of the molar value.

On to `C=CCOc1ccc2c(Nc3cccc(OC)c3)ccnc2c1`, for which the negative-log IC50 (pIC50) (usually the IC50 on a negative log10 scale, so that one unit is a factor of ten) in assay [1] was < 5.00; in assay [2], < 5.00; in assay [3], 5.09; in assay [4], 5.66; in assay [5], 5.18; in assay [6], < 5.00. Moreover, in assay [7], the negative-log IC50 (pIC50) was < 5.00.

As to `COc1ccc2c(Nc3cccc(Br)c3)ccnc2c1`, the pIC50 in assay [1], in assay [2], in assay [3], in assay [4], in assay [5] and in assay [6] was < 5.00 in each case. In assay [7], the pIC50 is < 5.00.

Consider `CCCCCCCCOc1ccc2c(Nc3cccc([N+](=O)[O-])c3)ccnc2c1`, for which the pIC50 in assay [1], in assay [2], in assay [3], in assay [4], in assay [5] and in assay [6] was < 5.00 each time. The negative logarithm of the IC50 (pIC50) in assay [7] was < 5.00.

Turning to `Fc1cccc(Nc2ccnc3cc(OCc4ccccc4)ccc23)c1`, the pIC50 in assay [1], in assay [2], in assay [3], in assay [4], in assay [5] and in assay [6] was < 5.00 each time. Further, the negative logarithm of the IC50 (pIC50) in assay [7] was < 5.00.

For `CCOc1ccc2c(Nc3cccc(OC)c3)ccnc2c1`, the pIC50 in assay [1] is < 5.00; in assay [2], < 5.00; in assay [3] it was 5.02; in assay [4], 6.39; in assay [5], < 5.00; in assay [6], < 5.00. Moreover, the negative logarithm of the IC50 (pIC50) in assay [7] is < 5.00.

Take `Fc1cccc(Nc2ccnc3cc(F)ccc23)c1`: the pIC50 in assay [1], in assay [2], in assay [3], in assay [4], in assay [5] and in assay [6] was < 5.00 throughout. In assay [7], the pIC50 is < 5.00.

For `Fc1cccc(Nc2ccnc3cc(Cl)ccc23)c1`, the negative logarithm of the IC50 (pIC50) in assay [1], in assay [2], in assay [3], in assay [4], in assay [5] and in assay [6] was < 5.00 in each case. The pIC50 in assay [7] was < 5.00.

For `CCCCCCCCOc1ccc2c(Nc3cccc(F)c3)ccnc2c1`, the pIC50 in assay [1] is 5.03; in assay [2], 5.02; in assay [3], 5.01; in assay [4] it was 5.37; in assay [5] it was 5.22; in assay [6] it was 5.02. In assay [7], the pIC50 was 5.02.

For the compound `Fc1ccc2c(Nc3cccc(Br)c3)ccnc2c1`, the pIC50 in assay [1], in assay [2], in assay [3], in assay [4], in assay [5] and in assay [6] was < 5.00 throughout. For the same compound, the pIC50 in assay [7] was < 5.00.

In the case of `O=[N+]([O-])c1cccc(Nc2ccnc3cc(F)ccc23)c1`, the pIC50 in assay [1], in assay [2], in assay [3], in assay [4], in assay [5] and in assay [6] was < 5.00 in each case. In assay [7], the pIC50 was < 5.00.

With `COc1cccc(Nc2ccnc3cc(OCc4ccc(F)cc4)ccc23)c1`, the pIC50 in assay [1], in assay [2], in assay [3], in assay [4], in assay [5] and in assay [6] was < 5.00 each time. The pIC50 in assay [7] was < 5.00.

`CCCCOc1ccc2c(Nc3cccc(F)c3)ccnc2c1`: the negative-log IC50 (pIC50) is < 5.00 in assay [1]; < 5.00 in assay [2]; 5.09 in assay [3]; 5.84 in assay [4]; 5.03 in assay [5]; < 5.00 in assay [6]. Besides, the pIC50 in assay [7] is < 5.00.

As to `C=CCOc1ccc2c(Nc3cccc([N+](=O)[O-])c3)ccnc2c1`, the pIC50 in assay [1] was < 5.00; in assay [2], < 5.00; in assay [3], 5.17; in assay [4], 6.66; in assay [5], 5.42; in assay [6] it was < 5.00. The pIC50 in assay [7] is < 5.00.
